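Assay format: 96-well plates, 48-hour exposure. The concentration for 50% growth inhibition is given as GI50.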 The source made the active and inactive calls. Rule as the data show it: active = GI50 up to about 1.1 µM and inactive = higher.
Legend:
Assay in all cases: DTP human tumour cell line panel, 48 h
SF-268 = test system: SF-268
HCT-15 = test system: HCT-15
CAKI-1 = test system: CAKI-1
NCI-H522 = test system: NCI-H522
TK-10 = test system: TK-10
K562 = test system: K562
SR = test system: SR
NCI/ADR-RES = test system: NCI/ADR-RES
RPMI-8226 = test system: RPMI-8226
DU-145 = test system: DU-145
MOLT-4 = test system: MOLT-4
SN12C = test system: SN12C
OVCAR-8 = test system: OVCAR-8
HT-29 = test system: HT-29
SK-MEL-28 = test system: SK-MEL-28
NCI-H460 = test system: NCI-H460
NCI-H226 = test system: NCI-H226
HCT-116 = test system: HCT-116
ACHN = test system: ACHN
RXF 393 = test system: RXF 393

How did the GI50 (SF-268) turn out when Oc1cc(-c2ccc(F)cc2)nc2ncc(Cl)cc12 was run?
Its GI50 is 67 µM (inactive).

And the GI50 (HCT-15)?
Its GI50 is 4.62 µM.

What about the GI50 (CAKI-1) of the same molecule?
The GI50 was 33 µM (inactive).

And the GI50 (NCI-H522)?
Its GI50 is 10.5 µM (inactive).

And the GI50 (TK-10)?
Its GI50 is > 83.4 µM (inactive).

And the GI50 (K562)?
Its GI50 is 4.21 µM (inactive).

And the GI50 (SR)?
Its GI50 is 3.09 µM (inactive).

What about the GI50 (NCI/ADR-RES) of the same molecule?
The GI50 was 18 µM (inactive).

What about the GI50 (RPMI-8226) of the same molecule?
The GI50 was 19 µM (inactive).

What about the GI50 (DU-145) of the same molecule?
Its GI50 is 21.4 µM (inactive).

What about the GI50 (MOLT-4) of the same molecule?
Its GI50 is 20.7 µM (inactive).

And the GI50 (SN12C)?
The GI50 was > 84.1 µM (inactive).

And the GI50 (OVCAR-8)?
The GI50 was 38.5 µM (inactive).

What about the GI50 (HT-29) of the same molecule?
Its GI50 is 26.5 µM (inactive).

What about the GI50 (SK-MEL-28) of the same molecule?
The GI50 was 58.5 µM (inactive).

And the GI50 (NCI-H460)?
The GI50 was 15.4 µM (inactive).

What about the GI50 (NCI-H226) of the same molecule?
The GI50 was 3.03 µM (inactive).

And the GI50 (HCT-116)?
The GI50 was 9.51 µM (inactive).

What about the GI50 (ACHN) of the same molecule?
The GI50 was > 73.1 µM (inactive).

What about the GI50 (RXF 393) of the same molecule?
Its GI50 is 17.2 µM (inactive).

How did the GI50 (SF-268) turn out when O=C1c2cccnc2C(=O)c2c1nc1ccccc1c2-c1cncc(-c2c3c(nc4ccccc24)C(=O)c2cccnc2C3=O)c1 was run?
The GI50 was 0.159 µM (active).

What about the GI50 (HCT-15) of the same molecule?
Its GI50 is 0.0251 µM.

What about the GI50 (CAKI-1) of the same molecule?
Its GI50 is 0.332 µM (active).

What about the GI50 (NCI-H522) of the same molecule?
Its GI50 is 0.103 µM (active).

What about the GI50 (TK-10) of the same molecule?
Its GI50 is 0.458 µM (active).

What about the GI50 (K562) of the same molecule?
The GI50 was 0.213 µM (active).

And the GI50 (SR)?
Its GI50 is < 0.01 µM (active).

And the GI50 (NCI/ADR-RES)?
The GI50 was 0.253 µM (active).

What about the GI50 (RPMI-8226) of the same molecule?
The GI50 was 0.141 µM (active).

What about the GI50 (DU-145) of the same molecule?
The GI50 was 0.165 µM (active).

And the GI50 (MOLT-4)?
The GI50 was 0.117 µM (active).

And the GI50 (SN12C)?
The GI50 was 0.126 µM (active).

And the GI50 (OVCAR-8)?
Its GI50 is 0.0634 µM (active).

What about the GI50 (HT-29) of the same molecule?
Its GI50 is 0.327 µM (active).

What about the GI50 (SK-MEL-28) of the same molecule?
The GI50 was 0.22 µM (active).

And the GI50 (NCI-H460)?
The GI50 was 0.19 µM (active).

What about the GI50 (NCI-H226) of the same molecule?
Its GI50 is 0.163 µM (active).

What about the GI50 (HCT-116) of the same molecule?
Its GI50 is 0.139 µM (active).

And the GI50 (ACHN)?
Its GI50 is 0.124 µM (active).

What about the GI50 (RXF 393) of the same molecule?
Its GI50 is 0.316 µM (active).

For CCc1ccc(/C=C/C(=O)C2CN(CC)CCC2(O)/C=C/c2ccc(CC)cc2)cc1 (stereo not given), which GI50 (SF-268) is on record?
The GI50 was 4.57 µM (inactive).

And the GI50 (HCT-15)?
The GI50 was 3.24 µM.

And the GI50 (CAKI-1)?
Its GI50 is 6.59 µM (inactive).

And the GI50 (NCI-H522)?
The GI50 was 2.59 µM (inactive).

What about the GI50 (TK-10) of the same molecule?
The GI50 was 2.34 µM (inactive).

What about the GI50 (K562) of the same molecule?
Its GI50 is 2.52 µM (inactive).

What about the GI50 (SR) of the same molecule?
Its GI50 is 1.71 µM (inactive).

What about the GI50 (NCI/ADR-RES) of the same molecule?
Its GI50 is 3.47 µM (inactive).

And the GI50 (RPMI-8226)?
Its GI50 is 1.36 µM (inactive).

And the GI50 (DU-145)?
The GI50 was 9.55 µM (inactive).

And the GI50 (MOLT-4)?
Its GI50 is 2.2 µM (inactive).

What about the GI50 (SN12C) of the same molecule?
Its GI50 is 4.09 µM (inactive).

And the GI50 (OVCAR-8)?
Its GI50 is 3.3 µM (inactive).

What about the GI50 (HT-29) of the same molecule?
Its GI50 is 1.83 µM (inactive).

What about the GI50 (SK-MEL-28) of the same molecule?
The GI50 was 1.55 µM (inactive).

What about the GI50 (NCI-H460) of the same molecule?
Its GI50 is 2.22 µM (inactive).

What about the GI50 (NCI-H226) of the same molecule?
The GI50 was 4.41 µM (inactive).

What about the GI50 (HCT-116) of the same molecule?
The GI50 was 1.79 µM (inactive).

What about the GI50 (ACHN) of the same molecule?
The GI50 was 1.95 µM (inactive).

What about the GI50 (RXF 393) of the same molecule?
The GI50 was 3.18 µM (inactive).

For CC(C)=CC[C@]12CCN[C@H]1N(S(=O)(=O)c1ccccc1)c1ccccc12, which GI50 (SF-268) is on record?
Its GI50 is 14.8 µM (inactive).

What about the GI50 (HCT-15) of the same molecule?
Its GI50 is 15.6 µM.

And the GI50 (CAKI-1)?
The GI50 was 20.1 µM (inactive).

What about the GI50 (NCI-H522) of the same molecule?
Its GI50 is 13.9 µM (inactive).

And the GI50 (TK-10)?
Its GI50 is 34.9 µM (inactive).

And the GI50 (K562)?
Its GI50 is 16.7 µM (inactive).

What about the GI50 (SR) of the same molecule?
The GI50 was 18.3 µM (inactive).

What about the GI50 (NCI/ADR-RES) of the same molecule?
The GI50 was 14.8 µM (inactive).

And the GI50 (RPMI-8226)?
Its GI50 is 18.3 µM (inactive).

And the GI50 (DU-145)?
Its GI50 is > 100 µM (inactive).

What about the GI50 (MOLT-4) of the same molecule?
The GI50 was 21.1 µM (inactive).

What about the GI50 (SN12C) of the same molecule?
The GI50 was 13.6 µM (inactive).

What about the GI50 (OVCAR-8) of the same molecule?
Its GI50 is 16.8 µM (inactive).

What about the GI50 (HT-29) of the same molecule?
Its GI50 is 18.5 µM (inactive).

What about the GI50 (SK-MEL-28) of the same molecule?
Its GI50 is 16.4 µM (inactive).

And the GI50 (NCI-H460)?
The GI50 was 14.5 µM (inactive).

What about the GI50 (NCI-H226) of the same molecule?
The GI50 was 14.9 µM (inactive).

And the GI50 (HCT-116)?
Its GI50 is 14.4 µM (inactive).

What about the GI50 (ACHN) of the same molecule?
Its GI50 is 21.1 µM (inactive).

And the GI50 (RXF 393)?
Its GI50 is 13.5 µM (inactive).

COc1ccc2cc(CN3CCC(C4CCNCC4)CC3)ccc2c1 was tested. Which GI50 (SF-268) did it give?
The GI50 was 2.58 µM (inactive).

What about the GI50 (HCT-15) of the same molecule?
The GI50 was 2.28 µM.

What about the GI50 (CAKI-1) of the same molecule?
The GI50 was 2.48 µM (inactive).

And the GI50 (NCI-H522)?
Its GI50 is 2.17 µM (inactive).

What about the GI50 (TK-10) of the same molecule?
Its GI50 is 3.79 µM (inactive).

What about the GI50 (K562) of the same molecule?
The GI50 was 0.959 µM (active).

And the GI50 (SR)?
The GI50 was 2.07 µM (inactive).

And the GI50 (NCI/ADR-RES)?
Its GI50 is 2.88 µM (inactive).

What about the GI50 (RPMI-8226) of the same molecule?
The GI50 was 1.53 µM (inactive).

What about the GI50 (DU-145) of the same molecule?
Its GI50 is 4.2 µM (inactive).

What about the GI50 (MOLT-4) of the same molecule?
The GI50 was 0.437 µM (active).

What about the GI50 (SN12C) of the same molecule?
The GI50 was 6.85 µM (inactive).

And the GI50 (OVCAR-8)?
Its GI50 is 3.4 µM (inactive).

What about the GI50 (HT-29) of the same molecule?
Its GI50 is 1.3 µM (inactive).

And the GI50 (SK-MEL-28)?
Its GI50 is 1.75 µM (inactive).

And the GI50 (NCI-H460)?
The GI50 was 1.93 µM (inactive).

And the GI50 (NCI-H226)?
The GI50 was 7.93 µM (inactive).

What about the GI50 (HCT-116) of the same molecule?
Its GI50 is 1.8 µM (inactive).

And the GI50 (ACHN)?
The GI50 was 3.61 µM (inactive).

What about the GI50 (RXF 393) of the same molecule?
The GI50 was 2.28 µM (inactive).

From ChEMBL document CHEMBL1201862, “PubChem BioAssay data set” (2004)
